PubChem BioAssay (NCI)
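Five compound concentrations were applied to cells in 96-well plates for 48 hours; endpoints were derived by simple linear interpolation of the resulting dose-response curve. At the GI50, growth is halved. The concentration for full growth arrest is given as TGI.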

Experiments:
Experiment in all cases: NCI-60 cell line screen, 48 h
[1] = test system: 786-0 renal
[2] = test system: A498 renal
[3] = test system: A549 NSCLC
[4] = test system: ACHN renal
[5] = test system: BT-549 breast
[6] = test system: CAKI-1 renal
[7] = test system: CCRF-CEM leukemia
[8] = test system: COLO 205 colon
[9] = test system: DU-145 prostate
[10] = test system: EKVX NSCLC
[11] = test system: HCC-2998 colon
[12] = test system: HCT-116 colon
[13] = test system: HCT-15 colon
[14] = test system: HL-60(TB) leukemia
[15] = test system: HOP-62 NSCLC
[16] = test system: HOP-92 NSCLC
[17] = test system: HS 578T breast
[18] = test system: HT29 colon
[19] = test system: IGROV1 ovarian
[20] = test system: K-562 leukemia
[21] = test system: KM12 colon
[22] = test system: LOX IMVI melanoma
[23] = test system: M14 melanoma
[24] = test system: MALME-3M melanoma
[25] = test system: MCF7 breast
[26] = test system: MDA-MB-231 breast
[27] = test system: MDA-MB-435
[28] = test system: MOLT-4 leukemia
[29] = test system: NCI-H226 lung
[30] = test system: NCI-H23 lung
[31] = test system: NCI-H460 lung
[32] = test system: NCI-H522 lung
[33] = test system: NCI/ADR-RES ovarian
[34] = test system: OVCAR-3 ovarian
[35] = test system: OVCAR-4 ovarian
[36] = test system: OVCAR-5 ovarian
[37] = test system: OVCAR-8 ovarian
[38] = test system: PC-3 prostate
[39] = test system: RPMI-8226 leukemia
[40] = test system: RXF 393 renal
[41] = test system: SF-268 CNS
[42] = test system: SF-295 CNS
[43] = test system: SF-539 CNS
[44] = test system: SK-MEL-2 melanoma
[45] = test system: SK-MEL-28 melanoma
[46] = test system: SK-MEL-5 melanoma
[47] = test system: SK-OV-3 ovarian
[48] = test system: SN12C renal
[49] = test system: SNB-19 CNS
[50] = test system: SNB-75 CNS
[51] = test system: SR leukemia
[52] = test system: SW-620 colon
[53] = test system: T-47D breast
[54] = test system: TK-10 renal
[55] = test system: UACC-257 melanoma
[56] = test system: UACC-62 melanoma
[57] = test system: UO-31 renal

SMILES: Nc1cc2c(cc1Br)[nH]c(=O)c1ccccc12
- GI50 [1]: 6.16 µM
- TGI [1]: > 100 µM
- GI50 [2]: 3.91 µM
- TGI [2]: 29.8 µM
- GI50 [3]: 2.91 µM
- TGI [3]: 11.4 µM
- GI50 [4]: 3.09 µM
- TGI [4]: 20.1 µM
- GI50 [5]: 12.3 µM
- TGI [5]: 31.4 µM
- GI50 [6]: 5.39 µM
- TGI [6]: 53.4 µM
- GI50 [7]: 6.82 µM
- TGI [7]: 59.5 µM
- GI50 [8]: 3.34 µM
- GI50 [9]: 2.14 µM
- TGI [9]: 4.76 µM
- GI50 [10]: 4.18 µM
- TGI [10]: 35.1 µM
- GI50 [11]: 5.5 µM
- TGI [11]: 17.1 µM
- GI50 [12]: 2.91 µM
- TGI [12]: 25.5 µM
- GI50 [13]: 4.79 µM
- TGI [13]: 20.8 µM
- GI50 [14]: 10.8 µM
- TGI [14]: 54.3 µM
- GI50 [15]: 3.71 µM
- TGI [15]: 13.3 µM
- GI50 [16]: 3.81 µM
- TGI [16]: 41.8 µM
- GI50 [17]: 3.5 µM
- TGI [17]: 28.9 µM
- GI50 [18]: 3.46 µM
- TGI [18]: 10.8 µM
- GI50 [19]: 3.61 µM
- TGI [19]: 23.1 µM
- GI50 [20]: 5.78 µM
- TGI [20]: > 100 µM
- GI50 [21]: 3.4 µM
- TGI [21]: 11.2 µM
- GI50 [22]: 1.8 µM
- TGI [22]: 6.23 µM
- GI50 [23]: 2.92 µM
- TGI [23]: 10 µM
- GI50 [24]: 2.17 µM
- TGI [24]: 4.78 µM
- GI50 [25]: 1.83 µM
- TGI [25]: 11.4 µM
- GI50 [26]: 3.37 µM
- TGI [26]: 54.9 µM
- GI50 [27]: 1.91 µM
- TGI [27]: 3.57 µM
- GI50 [28]: 4.03 µM
- TGI [28]: 43 µM
- GI50 [29]: 5.15 µM
- TGI [29]: 27.5 µM
- GI50 [30]: 1.8 µM
- TGI [30]: 5.29 µM
- GI50 [31]: 3.66 µM
- TGI [31]: 18.5 µM
- GI50 [32]: 5.47 µM
- TGI [32]: 19.8 µM
- GI50 [33]: 9.25 µM
- TGI [33]: 35.1 µM
- GI50 [34]: 2.14 µM
- TGI [34]: 6.45 µM
- GI50 [35]: 2.55 µM
- TGI [35]: 38.5 µM
- GI50 [36]: 6.91 µM
- TGI [36]: 41.1 µM
- GI50 [37]: 3.37 µM
- TGI [37]: > 100 µM
- GI50 [38]: 4.14 µM
- TGI [38]: > 100 µM
- GI50 [39]: 5.19 µM
- TGI [39]: 42.3 µM
- GI50 [40]: 4.3 µM
- TGI [40]: 21.7 µM
- GI50 [41]: 5.9 µM
- TGI [41]: 44.9 µM
- GI50 [42]: 10.2 µM
- TGI [42]: 38.4 µM
- GI50 [43]: 15.1 µM
- TGI [43]: 49.3 µM
- GI50 [44]: 3.44 µM
- TGI [44]: 11.2 µM
- GI50 [45]: 4.25 µM
- TGI [45]: 15.5 µM
- GI50 [46]: 1.46 µM
- TGI [46]: 2.79 µM
- GI50 [47]: 10.1 µM
- TGI [47]: 54.1 µM
- GI50 [48]: 2.68 µM
- TGI [48]: 13.8 µM
- GI50 [49]: 5.25 µM
- TGI [49]: 20.2 µM
- GI50 [50]: 2.66 µM
- TGI [50]: 11.9 µM
- GI50 [51]: 5.07 µM
- TGI [51]: 47.2 µM
- GI50 [52]: 7.73 µM
- TGI [52]: 29 µM
- GI50 [53]: 4.22 µM
- TGI [53]: 55.8 µM
- GI50 [54]: 4.27 µM
- TGI [54]: 32.7 µM
- GI50 [55]: 4.13 µM
- TGI [55]: 17.1 µM
- GI50 [56]: 6.02 µM
- TGI [56]: 20.1 µM
- GI50 [57]: 2.73 µM
- TGI [57]: 18.5 µM
